# Laboratory results reported in patent publication US20160045463A1, “USE OF METALLOPROTEASE INHIBITORS IN THE TREATMENT OF POLYCYSTIC LIVER DISEASES” (UNIVERSIDAD DE SALAMANCA, priority 2012, published 2016).
# Experiments:
# [1] = tested on: PCK rats; test: Treatment of PCK rats with Marimastat for 8 weeks; format: in vivo, rat
# Description: PCK rats, sold by the Charles River company, is a well characterised animal model of ARPKD and used for the study of liver and kidney cystogenesis (Mason S B, et al. The Anatomical Record: Advances in Integrative Anatomy and Evolutionary Biology 2010; 293:1279-1288). This colony of animals has a spontaneous orthologous mutation in the PKHD1 gene that causes them to develop liver and kidney symptoms similar to those of ARPKD patients. Thus, after 4 weeks of life, PCK rats, irrespective of sex, start to develop liver and kidney cystogenesis and fibrosis, which are clearly shown at 16 weeks of life. In addition, these animals also show an increase in serum values of creatinine, bilirubin, cholesterol, triglycerides and proteinuria (Mason S B, et al. The Anatomical Record: Advances in Integrative Anatomy and Evolutionary Biology 2010; 293:1279-1288). PCK rats were maintained on standard diet for the whole assay and all in vivo experimental procedures were approved by the Ethics Committee of the Instituto Biodonostia.
# The group of control rats received the vehicle solution (i.e. distilled water) orally, 2 times a day (every ˜8-12 hours) and using the tube. Various biochemical markers were monitored in serum at the start and end of the study. Blood was extracted (500 μl through the tail vein) after anaesthetising the animal with isoflurane (inhalation anaesthesia, 2.5% in oxygen, with a flow rate of 0.3 L/min). After centrifuging the blood, various biochemical parameters were determined in the serum: alkaline phosphatase (ALP), transaminases (ALT, AST), bilirubin, biliary acids, creatinine, cholesterol, triglycerides and total proteins using a COBAS Integra400 Plus 174 analyser.
# After sacrificing the animals, the liver and kidney were removed and weighed; next both types of tissue were sectioned with a scalpel and fixed with a solution of 10% formaldehyde, to be later included in paraffin. Slices of 5 μm thickness were made of each sample and stained with hematoxylin-eosin or picrosirius red.
# The aim of hematoxylin-eosin staining is the determination of histological morphology. Thus the slices were incubated for 4 minutes with Harris hematoxylin (Merck) at room temperature. After incubation, the samples were washed with distilled water and stained with eosin (Merck) for 1 minute at room temperature. Next, the tissue slices were washed in running water for 5 minutes, dehydrated by immersion in solutions of increasing ethanol concentration (70%, 96%, 100% for 1 minute each) and finally incubated with xylol for 5 minutes. The samples were mounted with DePeX (Sigma) mounting medium for subsequent viewing in an optical microscope (Nikon Eclipse E800).
# The purpose of picrosirius red staining is the determination of extracellular collagen in the tissue. When hydration was completed, the slices were stained with 0.2% phosphomolybdic acid (Panreac Química) for 2 minutes and washed with distilled water. Next, the samples were incubated with a solution of 0.1% picrosirius red f3B (Gibco) for 3 hours. Finally the samples were washed with a solution of 0.01 N HCl for 2 minutes; the tissue was then dehydrated and mounted as described in the previous section.
# Additionally, the level of expression of various profibrotic hepatic markers [collagen 1a1 (Col1a1), beta transforming growth factor (TGFbeta), alpha actin of smooth muscle (alpha-Sma) and the growth factor of connective tissue (Ctgf)] and proinflammatory markers [IL-6, IL CXCL1 and IL1beta)] were analysed by RT-PCR in liver samples of control and PCK rats.
# [2] = tested on: normal rats; test: Normal rats treated with Marimastat orally for 1 week; format: in vivo, rat; conditions: oral, same dose
# Method: The various biochemical and histological markers listed above were also analysed. […] There were also no changes in the mean body weight of the animals.
# [3] = cited from earlier work
# [4] = at the time of sacrifice, n = 9
# [5] = serum, at the time of sacrifice, n = 9
smiles,measurement,setting,value
"CNC(=O)[C@@H](NC(=O)[C@H](CC(C)C)[C@H](O)C(=O)NO)C(C)(C)C [Marimastat, N-[2,2-dimethyl-1-(methylcarbamoyl)propyl]-2-[hydroxy-(hydroxycarbamoyl)methyl]-4-methyl-pentanamide]",kidney cystogenesis,"[1]; 8 weeks, FIG. 25",not affected
same,"cholangiocyte marker Ck19 expression at protein level (Western blot), hepatic samples","[1]; 8 weeks, p<0.001, FIG. 27A",down regulation
same,"collagen 1a1 (Col1a1) mRNA expression, hepatic samples","[1]; 8 weeks, p<0.05, FIG. 27B",down regulation
same,mRNA levels of CXCL1 in liver samples,"[1]; 8 weeks, p=0.08, FIG. 28B",almost statistically significant down regulation
same,mRNA levels of IL6 in liver samples,"[1]; 8 weeks, p=0.1, FIG. 28A",almost statistically significant down regulation
same,collagen deposition in liver (picrosirius red),"[1]; 8 weeks, vs control PCK rats, FIG. 26",less collagen deposition
same,WEIGHT Left kidney,[1]; [4],2.40 ± 0.19
same,WEIGHT Liver,[1]; [4],26.17 ± 2.98
same,WEIGHT Rat,[1]; [4],497 ± 12.24
same,WEIGHT Right kidney,[1]; [4],2.36 ± 0.17
same,serum levels of biochemical markers and biliary flow,"[1]; at the time of sacrifice, treated vs control, Table 5",no difference
same,liver cystogenesis (area of intrahepatic biliary cysts),"[1]; oral 0.2856 mg/kg/day, 8 weeks, vs control PCK rats, p<0.05, FIG. 24",reduction
same,ALT,[1]; [5],138.22 ± 2.66 U/L
same,AST,[1]; [5],755.56 ± 24.76 U/L
same,Albumin,[1]; [5],13.78 ± 0.59 g/L
same,Alkaline phosphatase,[1]; [5],57.00 ± 5.01 U/L
same,Cholesterol,[1]; [5],76.56 ± 3.93 mg/dL
same,Creatinine,[1]; [5],0.36 ± 0.02 mg/dL
same,Glucose,[1]; [5],137.89 ± 7.25 mg/dL
same,HDL,[1]; [5],31.11 ± 3.06 mg/dL
same,LDH,[1]; [5],15192.33 ± 356.84 U/L
same,LDL,[1]; [5],33.38 ± 1.61 mg/dL
same,Total bilirubin,[1]; [5],0.16 ± 0.05 mg/dL
same,Total protein,[1]; [5],3.11 ± 0.12 g/dL
same,Triglycerides,[1]; [5],60.33 ± 3.97 mg/dL
same,Urea,[1]; [5],20.33 ± 0.78 mg/dL
same,histology of the liver or the kidney,[2],did not affect
same,mean body weight of the animals,[2],no changes
same,serum levels of biochemical markers,[2],did not affect
same,oral bioavailability,[3]; compared with Batimastat,better oral bioavailability
same,toxicity,[3]; compared with Batimastat,less toxicity
same,elimination half-life,[3]; in vivo,8 to 10 h
